For series [1], the system named is dry, scratchy throat with cough. Kind of series: Study 4: chewing gum and ODT in a subject with scratchy throat and cough. The series is classed as in vivo, human. The text has this: A person's child moved away from their neighborhood to go to college and they became responsible for taking care of their two cats. Initially everything was all right, but then they became sensitized to the litter box dust generated when they were cleaning after the cats. They developed a dry, scratchy throat with cough, and this was severely aggravated by their seasonal allergy to grass pollen, so that they were constantly clearing their throat. […] After about two weeks of coughing and discomfort, they agreed to try Gly-O-iPr, first spread as 3 mg per wafer of Wrigley spearmint chewing gum, and then later formulated in an orally disintegrating tablet at 3 mg per unit dose. The medicated chewing gum and the ODT both provided relief within five minutes after administration. The sense of discomfort in the throat was attenuated and the effect lasted for about four hours and the dose could be repeated with the same beneficial effect. This individual preferred the ODT method of delivery as they considered this more efficient than chewing gum. After using the ODT containing Gly-O-iPr for ten days on an “as-needed basis” […] cough and scratchy throat disappeared and they are now well.

Series [2] deals with ocular surface (non-keratinized stratified epithelium). Nature of the series: Ocular surface bioassay: duration of cooling after towelette wipe on closed eyelids. The series is classed as in vivo, human. How it is done:
Bioassay on Non-Keratinized Stratified Epithelium: Ocular Surface
For testing on the ocular surface, a towelette containing the test compound was used as the delivery unit. The test compound was dissolved first in absolute ethanol and then distilled water was added to form a standard 1 mg/mL solution in a 3 to 5% by weight ethanol-water solution. Three mL of the test solution was then added to a 0.4 g cotton rectangle (50 mm×60 mm) (CS-being, Daisan Cotton, Japan) and individually sealed with a vacuum apparatus (Foodsaver®, Jarden Corp.). Samples were stored in a freezer or refrigerator and thawed to room temperature before use. Wiping with the cotton pad delivers 40 to 45 μL of liquid composition to the closed eyelids (˜20 to 22 μL per eye surface). Thus, if the concentration of the test compound was 1 mg/mL, the dose delivered to both eyes is a total of ˜40 to 42 μg, or ˜20 μg per eye. The presence or absence of cooling sensations felt on the ocular surface was noted as being present or absent at 5 to 10 minute intervals until no coolness was noticeable in two successive test intervals. Only the duration of cooling on the ocular surface was recorded, without an attempt to quantify the intensity of the sensation.

Series [3] deals with Salmonella typhimurium tester strain TA1535. Kind of series: Ames test in TA1535 with and without S9-mix (Notox).
A further series deals with allergic conjunctivitis. Kind of series: Study 3: eye wipes in a subject with allergic conjunctivitis. Type of series: in vivo, human. The text has this:
A laboratory scientist suffered from seasonal allergic conjunctivitis. This condition was severely aggravated when […] started doing experiments with laboratory animals (rats and mice) and […] became sensitized to the associated allergens. The conjunctivitis was not relieved by oral or topical eye drops containing antihistamines and the subject was reluctant to consider the use of anti-inflammatory steroid ointments. Upon examination, their eyes were blood-shot and watery and they kept rubbing their eyelids with their fingers even though they knew this action may further aggravate the itch and discomfort. They volunteered to try eye wipes containing 1.0 mg/mL of Gly-O-iPr. The relief of itch and discomfort was obtained within 5 minutes and lasted for at least four hours.

For series [4], the system named is oropharyngeal surface (non-keratinized stratified epithelium). Kind of series: Oropharyngeal surface bioassay: ODT followed by chili pepper sauce challenge. The series is classed as in vivo, human. Further details: key to Non-Keratinized Stratified Epithelia (NKSE) Oropharyngeal Surface, attenuation of chili pepper sauce irritation: If there was no attenuation of the challenge stimuli, the score was (0); if there was partial inhibition, the score was (+); if there was complete attenuation of the irritant signal, the score was (++). The text has this:
Bioassay on Non-Keratinized Stratified Epithelium: Oropharyngeal Surface
A number of irritants have been evaluated for evoking the cough sensation as a measure of pharygeal sensitivity (see, e.g., Morice et al., 2001, “Cough Challenge in the Assessment of Cough Reflex”, Brit. J. Clin. Pharmacol., Vol. 52, pp. 365-375). Usually, citric acid or capsaicin is delivered via the inhalation route to volunteers and the number of coughs counted. […] The chili pepper sauce mixes with the saliva and the saliva is then deposited on the posterior oropharynx. The chili pepper sauce used was Yank Sing® Chili Pepper Sauce (YS Gourmet Productions, Inc., PO Box 26189, San Francisco, Calif. 94126) and is a well-known condiment for use with dim sum (Chinese tea lunch). The sensations associated with the chili pepper sauce are located in the posterior wall of the mouth and are clearly recognized by the test subject and associated with a desire to clear the throat.
The ODT was formulated by taking an ingredient, dissolving it in absolute ethanol, and then adding 10% by weight of maltitol, and 90% by weight of mannitol, and then an equal volume of distilled water. The mixture was the stirred with a glass rod, and dispensed onto a piece of wax paper with a disposable plastic pipette. The individual dried tablets weighed on average 150 mg each and when on the dorsal surface of the tongue, dissolved completely in saliva and coated the oropharyngeal surface. On average, the amount of the test substance was 2.5 to 3 mg per tablet.
To test for anti-nociceptive activity, the ODT containing the test compound was first administered onto the dorsal surface of the tongue; 45 to 50 minutes later, the chili-pepper sauce challenge is administered. At this time, the coolness sensations from the test compound have dissipated and the test is to determine if an anti-nociceptive effect remains. Results were reported as follow: If there was no attenuation of the challenge stimuli, the score was (0), if there was partial inhibition, the score was (+), and if there was complete attenuation of the irritant signal, the score was (++). In the presence of an ODT containing an active ingredient that results in a (++) score, the irritative signals were completely absent, yet the salty taste used in the soy sauce of the condiment could be readily identified and tasted.
In one formulation (used in the biological evaluation studies described herein), orally disintegrating tablets (ODTs) were prepared using an 80:20 by weight mixture of mannitol-maltitol (Pearlitol™ and Sweetpearl™, Roquette Freres, France). This carrier has the advantage of completely masking bitter tastes that might be present in some of the test compounds. The test compound was first mixed with the mannitol-maltitol using a mortar and pestle, and then suspended in an equal volume of 10:90 v/v ethanol-distilled water. A disposable pipette was then used to aliquot the liquid mixture onto a sheet of wax paper and dried at room temperature. The dried tablets were then weighed and sorted. It was found by experiment that an 80 mg tablet containing 2 to 3 mg of test compound dissolved within 15 seconds when placed on the dorsal surface of the tongue and provided a good test dose.

Where [5] appears, read: 3 mg per chewing gum wafer or 3 mg ODT, one subject.

As to `CC(C)OC(=O)CNC(=O)[C@@H]1C[C@H](C)CC[C@H]1C(C)C` [Gly-O-iPr, [((1R,2S,5R)-2-isopropyl-5-methyl-cyclohexanecarbonyl)-amino]-acetic acid isopropyl ester], in series [1] (setting [5]), the “duration of attenuated throat discomfort” value is “about four” and the “time to relief after administration” value was “five”. For the same compound, the “cough and scratchy throat” value in series [1] (ODT as needed for ten days) is recorded as “disappeared”. Also, the “duration of cooling effect on the ocular surface, on average” value in series [2] (1 mg/mL) was 5 h. Moreover, the “Non-Keratinized Stratified Epithelia (NKSE) Ocular Surface (min), duration of cooling” value in series [2] (applied to the closed eyelids using a towellette at 1 mg/mL in 5%-95% v/v ethanol-distilled water) came out at 300 min. For the same compound, the “rank order of duration of action of ocular wipes” value in series [2] (six subjects, randomized double-blind study, three trials per wipe) was “Gly-O-iPr>>Gly-O-nPr>Gly-O-Et”. For the same compound, the “duration of cooling on the ocular surface” value in series [2] (test concentration increased to 1.5 mg/mL) was “about 6.5 hours”. Also, the “mutagenic activity, conclusion” value in series [3] (TA1535, 3 to 5000 μg/plate, absence and presence of S9-mix) is reported as “not mutagenic”. The bacterial background lawn entry in series [3] (any of the concentrations tested (3 to 5000 μg/plate)) is “not reduced”. The “precipitation on the plates” value in series [3] (top dose of 5000 μg/plate, dissolved in DMSO) is on record as “did not precipitate”. Moreover, the “time to relief of itch and discomfort” value in the series with allergic conjunctivitis (eye wipes containing 1.0 mg/mL, one subject) is at most 5 min. Moreover, the “over-all itchiness and redness” value with allergic conjunctivitis (wipes as needed for three days) was “reduced significantly”. In series [4] (ODT), the “sensation on the oropharyngeal surface” value is given as “refreshing cooling sensation”. Also, the “Non-Keratinized Stratified Epithelia (NKSE) Oropharyngeal Surface, attenuation of chili pepper sauce irritation” value in series [4] (ODT containing 2.5 to 3 mg of active ingredient, chili pepper sauce 45 minutes later) is given as “++”. Moreover, in series [4] (ODT, same test conditions), the “effect on the response to the chili pepper sauce” value is “blocked the response to the chili pepper sauce”.

These data come from US8426463B2, “[((1R,2S,5R)-2-isopropyl-5-methyl-cyclohexanecarbonyl)-amino]-acetic acid isopropyl ester and related compounds and their use in therapy” (priority 2011, dated 2013).
